Here are results for eight compounds from paper PMC10870298, “Rational Design of Antifungal Peptides Based on the γ-Core Motif of a Neosartorya (Aspergillus) fischeri Antifungal Protein to Improve Structural Integrity, Efficacy, and Spectrum” (ACS Omega, 2024).

For series [1], the system named is C. albicans SC5314. Nature of the series: Cell-killing efficacy: growth kinetics of high-density culture and drop viability on YPD agar. Format: cell-based, Candida albicans. Particulars: for growth of high-density C. albicans culture: OD600 = 0.2 mid-log cells, LCM, 30 °C, 24 h; for proportion of cells able to multiply (culture drops on YPD agar after treatment): 24 h treatment at 30 °C, then 5 μL drops on YPD agar 24 h at 30 °C. How it is done: Compared with MIC determination, monitoring the growth kinetics of high-density cell cultures in the presence of various peptide concentrations allows for detailed insight into the cell-killing efficacy over time and how cysteine modifications influence it. Therefore, the growth of high-density C. albicans cell culture (OD600 = 0.2) was monitored in the presence of 0.5× MIC, 1× MIC, and 2× MIC of the NFAP γ-core peptides.
The experiment was conducted in a flat-bottom 96-well microtiter plate (TC Plate 96 Well, Suspension, F; Sarstedt, Nümbrecht, Germany): 100 μL of OD600 = 0.2 mid-log phase cells prepared in LCM were mixed with 100 μL of 1× MIC, 2× MIC, or 4× MIC of the peptide diluted in LCM. The plates were incubated statically at 30 °C for 24 h. The absorbance (OD600) of each well was then measured after shaking for 5 s every hour using a microtiter plate reader (BioTek Synergy HTX Multi-Mode Microplate Reader; Agilent Technologies, Santa Clara, CA, USA). Untreated cells (100 μL LCM mixed with 100 μL OD600 = 0.2 mid-log phase cells prepared in LCM) served as growth controls. To examine the viability of the treated C. albicans cells, 5–5 μL cultures from each well were dropped onto the YPD agar plate after the last OD600 measurement and allowed to dry before incubation at 30 °C for 24 h. The plates were photographed (Versa Doc Imaging System 4000 MP; Bio-Rad, Hercules, CA, USA). These experiments were repeated two times, involving three technical replicates.

Series [2] relates to C. albicans SC5314. It is filed as cell-based, Candida albicans. Particulars: SC5314, 48 h. How it is done:
(§1) The lyophilized and stored peptides were dissolved in sterile ddH2O (5 mg mL^–1). Then, half of the volume of the peptide stock was tested for antifungal activity and stored at −20 °C until RP-HPLC and ECD analyses. This peptide sample is termed the −20 °C sample. The other half volume of the stock was stored at 4 °C for 7 days, tested for antifungal activity, and stored at −20 °C until RP-HPLC and ECD analyses. This peptide sample is referred to as the 4 °C sample.
(§2) MICs of NFAP γ-core peptide derivatives were determined against C. albicans SC5314 and A. fumigatus CBS 101355. These fungi were maintained on yeast peptone dextrose agar (YPD: 10 g L^–1 yeast extract, 20 g L^–1 peptone, 20 g L^–1D-glucose, 15 g L^–1 agar) and malt extract agar (MEA, Sigma-Aldrich) slants at 4 °C, respectively. Susceptibility tests were performed in low cationic medium (LCM: 5 g L^–1D-glucose, 0.25 g L^–1 yeast extract, 0.125 g L^–1 peptone) according to Tóth et al. (2018)[16] and Tóth et al. (2020)[19] for yeasts and molds, respectively, with slight modifications. Briefly, 100 μL NFAP γ-core peptide (0.39–400 μg mL^–1 in two-fold serial dilutions in LCM) was mixed with 100 μL of 2 × 10^5 mL^–1 mid-log phase C. albicans cells or freshly harvested A. fumigatus conidia in LCM in a flat-bottom 96-well microtiter plate (TC Plate 96 Well, Suspension, F; Sarstedt, Nümbrecht, Germany). A mixture of 100 μL of medium (LCM) without NFAP γ-core peptide derivative and 100 μL of cell or conidium suspension served as the untreated growth control, whereas 200 μL of LCM was used for background calibration. The plates were incubated statically for 48 h (C. albicans) or 72 h (A. fumigatus) at 30 °C. The absorbance (OD620) of each well was measured after shaking for 5 s using a microtiter plate reader (SPECTROstar Nano; BMG Labtech, Ortenberg, Germany). The absorbance of the untreated control was taken as 100% growth for the MIC calculation. MIC was defined as the lowest peptide concentration that reduced fungal growth by […] compared with the untreated control. Susceptibility tests were performed in two technical replicates and were repeated at least two times.

In a further series the test system is A. fumigatus CBS 101355. It is filed as cell-based, Aspergillus fumigatus. How it is done:
as §1, §2

Another series relates to sheep blood. Particulars: cited from earlier work. From the text:
(§3) The clinical application of antimicrobial peptides is limited by their potential hemolytic activity, toxicity, immunogenicity, and other side effects.[27] […] Herein, we investigated how cysteine–serine substitution(s) and S-tert-butylation of these peptides influence hemolytic activ ...

The test system of series [3] is human cell lines (monocytes, colonic epithelial cells, keratinocytes). The note with it: cited from earlier work.
Excerpt: as §3

Series [4] can be described thus: Structural integrity (disulfide bridge formation on storage) by RP-HPLC. It is filed as physicochemical. How it is done: The half volume of the dissolved lyophilized peptides was promptly stored at −20 °C for 7 days. The other half volume of these peptides was stored at 4 °C for 7 days (oxidative condition) and then at −20 °C until RP-HPLC and electronic circular dichroism (ECD) analyses were performed. Herein, these peptide samples are referred to as −20 and 4 °C samples, respectively.
as §1
Crude peptides were purified by semipreparative RP-HPLC using a solvent system of (A) 0.1% TFA and (B) 80% acetonitrile, 0.1% TFA, and a linear gradient from 0 to 30% (B) in 60 min. Purification was performed on a Phenomenex Jupiter Proteo 90 Å column (250 × 10 mm) using a Shimadzu HPLC apparatus (Berlin, Germany). Absorbance was detected at 220 nm. Purity was evaluated by analytical RP-HPLC using a Phenomenex Luna 10 μ C18 100 A column and an Agilent 1100 HPLC instrument (Palo Alto, CA, USA).

For series [5], the system named is plant pathogenic filamentous fungi. The note with it: previous studies; cited from earlier work. From the text:
Presumably, these peptides exert an antifungal mechanism through membrane disruption,[17] and the high positive net charge supports this mechanism. Additionally, neither hydrop ...

The mark [6] stands for this setting: 4 °C sample: 5 mg mL^–1 in sterile ddH2O stored at 4 °C for 7 days (oxidative condition).
The mark [7] stands for this setting: 1 and 2× MIC, OD600 hourly, repeated two times, three technical replicates.

Like-named read-outs stand apart in the source and are kept apart here. Residues, ends and D or L forms follow the SMILES beside them. *: point of attachment. tBu = CC(C)(C)* Where only a bound is given, the exact number is not on record here.

`CC[C@H](C)[C@H](NC(=O)[C@H](CCCCN)NC(=O)[C@H](CSC(C)(C)C)NC(=O)[C@H](CCCCN)NC(=O)[C@@H](NC(=O)[C@H](CCCCN)NC(=O)[C@@H](NC(=O)[C@H](CCC(=O)O)NC(C)=O)[C@@H](C)CC)[C@@H](C)CC)C(=O)N[C@@H](CCCCN)C(=O)N[C@@H](CCCCN)C(=O)N[C@H](C(=O)N[C@@H](CCCCN)C(=O)N[C@@H](CSC(C)(C)C)C(=O)N[C@@H](CCCCN)C(N)=O)[C@@H](C)CC` [NFAPimpγGZ^S-tBu] (Ac-EIKIKC(tBu)KIKKIKC(tBu)K-NH2): the “growth of high-density C. albicans culture” value (“growth” below) in the series on C. albicans SC5314 [1] (1× MIC) is “inhibited the growth”. Further, in the series on C. albicans SC5314 [1] (2× MIC), the “proportion of cells able to multiply (culture drops on YPD agar after treatment)” value (shortened to “proportion of cells able to multiply”) is recorded as “highly reduce the proportion of cells able to multiply”. In addition, the MIC is given as 25 μg mL^–1 with C. albicans SC5314 [2] and 25 μg mL^–1 with A. fumigatus CBS 101355 (CBS 101355, 72 h).
With `CC(=O)N[C@@H](CCC(=O)O)C(=O)N[C@@H](Cc1ccc(O)cc1)C(=O)N[C@@H](CCCCN)C(=O)NCC(=O)N[C@@H](CCCCN)C(=O)N[C@@H](CS)C(=O)N[C@@H](CCCCN)C(=O)N[C@H](C(=O)N[C@@H](CCCCN)C(=O)N[C@@H](CCCCN)C(=O)N[C@@H](CC(N)=O)C(=O)N[C@@H](CCCCN)C(=O)N[C@@H](CS)C(=O)N[C@@H](CCCCN)C(N)=O)[C@@H](C)O` [NFAPimpγ] (Ac-EYKGKCKTKKNKCK-NH2), the “proportion of cells able to multiply” value in the series with C. albicans SC5314 [1] (2× MIC) is recorded as “highly reduce the proportion of cells able to multiply”. Also, in the series on sheep blood, the hemolysis entry is on record as “did not cause hemolysis”. In series [3], the “toxicity to various human cell lines” value is listed as “not toxic”. The “oxidation / disulfide bridge formation (in words)” value in series [4] (setting [6]) is “total amount of the peptide was cyclized”. The “share of the peptide with intramolecular disulfide bridges (cyclic form)” value in series [4] (–20 °C sample: 5 mg mL^–1 in sterile ddH2O stored at −20 °C for 7 days) was “approximately 60%”. The compound further displayed an MIC against A. fumigatus CBS 101355 (CBS 101355, 72 h) greater than 200 μg mL^–1. For the same compound, in series [5], the antifungal activity entry is reported as “effectively inhibit the growth”.
For the compound `CC(=O)N[C@@H](CCC(=O)O)C(=O)N[C@@H](Cc1ccc(O)cc1)C(=O)N[C@@H](CCCCN)C(=O)NCC(=O)N[C@@H](CCCCN)C(=O)N[C@@H](CSC(C)(C)C)C(=O)N[C@@H](CCCCN)C(=O)N[C@H](C(=O)N[C@@H](CCCCN)C(=O)N[C@@H](CCCCN)C(=O)N[C@@H](CC(N)=O)C(=O)N[C@@H](CCCCN)C(=O)N[C@@H](CSC(C)(C)C)C(=O)N[C@@H](CCCCN)C(N)=O)[C@@H](C)O` [NFAPimpγ^S-tBu] (Ac-EYKGKC(tBu)KTKKNKC(tBu)K-NH2), the “growth” value in the series with C. albicans SC5314 [1] (0.5× MIC, compared with unmodified NFAPimpγ) is given as “extended the time when the C. albicans culture started to multiply intensively”. Also, the “proportion of cells able to multiply” value with C. albicans SC5314 [1] (1–2× MIC) is recorded as “highly reduce the proportion of cells able to multiply”. Moreover, the MIC was 50 μg mL^–1 in the series on C. albicans SC5314 [2]; 25 μg mL^–1 against A. fumigatus CBS 101355 (CBS 101355, 72 h); 25 μg mL^–1 in the series on A. fumigatus CBS 101355 (storage sample not specified, LCM, 72 h at 30 °C).
Regarding `CC(=O)N[C@@H](CCC(=O)O)C(=O)N[C@@H](Cc1ccc(O)cc1)C(=O)N[C@@H](CCCCN)C(=O)NCC(=O)N[C@@H](CCC(=O)O)C(=O)N[C@@H](CS)C(=O)N[C@@H](Cc1ccccc1)C(=O)N[C@H](C(=O)N[C@@H](CCCCN)C(=O)N[C@@H](CC(=O)O)C(=O)N[C@@H](CC(N)=O)C(=O)N[C@H](C(=O)N[C@@H](CS)C(=O)N[C@@H](CCCCN)C(N)=O)[C@@H](C)O)[C@@H](C)O` [NFAPγ] (Ac-EYKGECFTKDNTCK-NH2), the MIC in the series on C. albicans SC5314 [2] is recorded as greater than 200 μg mL^–1; against A. fumigatus CBS 101355 (CBS 101355, 72 h), greater than 200 μg mL^–1. Also, the “oxidation / disulfide bridge formation (in words)” value in series [4] (setting [6]) is on record as “most of this peptide formed intramolecular, whereas a smaller part formed an intermolecular disulfide bond”. Also, the antifungal activity entry in series [5] was “did not exhibit antifungal activity”.
On to Ac-EIKIKCKIKKIKSK-NH2 [NFAPimpγGZ^C13S], for which the “growth” value in the series with C. albicans SC5314 [1] (2× MIC) is “total or high growth inhibitions”. The MIC is given as 25 μg mL^–1 in the series with C. albicans SC5314 [2] and 50 μg mL^–1 against A. fumigatus CBS 101355 (CBS 101355, 72 h).
For “Ac-EIKIKSKIKKIKSK-NH2 [NFAPimpγGZ^C6S,C13S]”, the “growth” value in the series on C. albicans SC5314 [1] (2× MIC) is on record as “could not inhibit the growth”. In addition, the MIC was 25 μg mL^–1 in the series with C. albicans SC5314 [2] and 50 μg mL^–1 against A. fumigatus CBS 101355 (CBS 101355, 72 h).
Turning to Ac-EYKGKCKTKKNKSK-NH2 [NFAPimpγ^C13S], the “growth” value with C. albicans SC5314 [1] (setting [7]) is recorded as “could not fully inhibit the growth”. For the same compound, the MIC against C. albicans SC5314 [2] was 50 μg mL^–1; with A. fumigatus CBS 101355 (CBS 101355, 72 h) it was greater than 200 μg mL^–1. Moreover, the “share of the peptide in dimer form” value in series [4] (setting [6]) was “approximately 60%”.
For the compound “Ac-EYKGKSKTKKNKSK-NH2 [NFAPimpγ^C6S,C13S]”, the “growth” value with C. albicans SC5314 [1] (setting [7]) is “could not fully inhibit the growth”. Also, the MIC in the series on C. albicans SC5314 [2] is 50 μg mL^–1; in the series with A. fumigatus CBS 101355 (CBS 101355, 72 h), greater than 200 μg mL^–1.
